Experimental data taken from patent US9730906B2, “α-derivatives of cis-monounsaturated fatty acids for use as medicines” (UNIVERSITAT DE LES ILLES BALEARS, priority 2008, dated 2017).
Where two headings read alike, the source gives them in different places.

Columns and labels:
[1] = Body weight of rats on cafeteria diet, no pre-treatment (Table 5); type: in vivo, rat
From the text: The weight of treated animals was statistically less than the weight of obese control rats and statistically indistinguishable from that of lean control rats.

SF767 human tumour cells = assay: Growth of SF767 tumour cells in culture; type: cell-based
Description: In a second experimental series, designed to discover whether these molecules are effective in treatment of different types of tumours, the effect of OHOD at various concentrations on human cells of different types of cancer was studied. These experiments were performed as described before, except that the M220 and HT-29 cell lines were cultured in DMEM medium and the MDA-MB-231 line was incubated in Leibowitz L-15 medium supplemented with 15% foetal bovine […]. […] Where the nature of the tumour process requires, application can be topical (use on the skin of active products for the treatment of melanoma and other cutaneous abnormalities of cancerous nature), which can be considered as cosmetic treatments when attempts are made to correct aesthetic defects.

[2] = Levels of cholesterol, triglycerides and glucose in rats after oral treatment; type: in vivo, rat
Description: FIG. 13. The four bars, from left to right respectively, show the effect of treatments with vehicle (control, first bar), OHOD at 200 mg/kg (second bar), OHOD at 400 mg/kg (third bar) and OHOD at 600 mg/kg (fourth bar) on the cholesterol levels (group of four bars to the left), triglycerides (group of four bars in the middle) and glucose (group of four bars to the right). The treatments were oral in all cases and were maintained for 30 days. The values indicated are the average obtained in 6 animals per group.
FIG. 14. Effect of treatment with vehicle (control) or with the fatty acids of the invention (600 mg/kg) on the levels of cholesterol, triglycerides and glucose. The values indicated are the average of the values obtained in 6 animals. Each group of three bars represents treatment with a different fatty acid with the left bar corresponding to cholesterol, the middle bar to triglycerides and the right bar to glucose.
Metabolic diseases form a set of pathologies characterised by the accumulation or deficit of certain molecules (cholesterol, triglycerides, glucose, etc.) in the serum or tissues. These changes are the reflection of dysfunctions that are normally associated with errors in the activity of certain enzymes or in the control of these proteins. Among the most important metabolopathies are hypercholesterolemia (elevated levels of cholesterol), hypertriglyceridemia (elevated levels of triglycerides) and diabetes (elevated levels of glucose). These pathologies have high rates of incidence, morbidity and mortality, so that treatment is a first order necessity. […] For these experiments, the dose of fatty acid indicated (0, 200, 400 and 600 mg/kg) was supplied daily via the oral route. At the end of the treatment (30 days), blood was sampled from control and treated animals (n=6) and the levels of cholesterol, triglycerides and glucose were determined using standard colorimetric methods.
In a further experiment, the effect of various molecules at a single dose (600 mg/kg) was investigated. […] In this sense, modification on the α-carbon and the double bond in cis configuration are crucial elements for producing the therapeutic effect indicated above. […] Finally, the effect of α-derivatives of cis-monounsaturated fatty acids on the prevention of obesity was investigated. For this, a model of rat obesity induced by a cafeteria diet, where the hypercaloric food increases the weight of the animals very markedly, was used. There were various experimental groups (see Table 3), each of which consisted of 6 female Wistar Kyoto rats of 250-300 g in weight. All the animals received a standard diet for 2 weeks. In addition, 2 of the groups received an oral preventative pre-treatment of vehicle and the other groups received 300 mg/kg of the fatty acids indicated below. Afterwards, one of the control groups was maintained on a standard diet (lean control) and the other was fed on a cafeteria diet (obese control). The treated animal groups were fed on the cafeteria diet. Preventative pre-treatment was maintained for all the groups. After two weeks on these diets, the lean control group had increased their body weight by an average of 16±16 g, while the obese control group had increased their body weight by an average of 43±17 g (statistically significance difference, p<0.01).

A549 cells = assay: Growth/viability of A549 lung cancer cells in culture (cell count); type: cell-based, human
Description: FIG. 3A. Cancer cells (A549) were treated with various concentrations of OHOD and MOD11 to determine whether the effect was dependent on the concentration. […] These cells were treated with different concentrations (0-400 μM) of OHOD and MOD11 and the number of cells was determined by flow cytometry.
FIG. 3B. Cancer cells (A549) were treated with compounds indicated on the horizontal axis for 48 hours at 150 μM. Then, the cells were counted and their number and percent of untreated (control) represented on the vertical axis.
Also, a series of α-derivatives of cis-monounsaturated fatty acids were used to investigate their effectiveness in cancer treatment. Two types of experiment were performed. Firstly, the dependency of the anti-tumour effect on concentration was investigated. To perform these experiments, human lung cancer cells (A549) were cultivated in RPMI medium, supplemented with 10% foetal bovine […], 10 mM Hepes (pH 7.4), 2 mM glutamine, 2 g/l bicarbonate, 1 g/l glucose, 100 units/ml penicillin, 0.1 mg/ml streptomycin, 0.25 μg/ml Amphotericin B, at 37° C. and in the presence of 5% CO2. In a first experimental series, these cells were treated with various concentrations (0-400 μM) of OHOD and MOD11 and the number of cells was determined by flow cytometry (FIG. 3A). […] In a second series, the anti-tumour effectiveness on A549 lung cancer cells was investigated at a single concentration (150 μM) and a time of 48 hours (FIG. 3B). […] Obviously, among the previous molecules, some lacked both modifications on the α-carbon and the double bond in cis configuration (EO, HDO, ODO) and had no therapeutic effect. […]

hypertensive rats = assay: Arterial pressure in hypertensive rats after 8-day treatment (Table 5); type: in vivo, rat
[3] = cafeteria diet for 2 weeks, 300 mg/kg daily oral, no pre-treatment
[4] = concentration that reduces the number of cells to half
[5] = rats, daily dose of 600 mg/kg oral, untreated controls = 100%
[6] = arterial pressure, hypertensive rats, 8-day treatment, 400 mg/kg oral

CCCCCCCC/C=C\CCCCCCC(C(C)=O)C(=O)O (stereo not drawn) [ACOD, α-Acetyl-cis-Δ9-octadecenoic]
Body weight (g) (control = 311 g) [1, 3]: 301 g
IC50 (SF767 human tumour cells; [4]): 179 µM
% control CHO (cholesterol) [2, 5]: 59 % control
% control TG (triglycerides) [2, 5]: 53 % control
IC50 (A549 cells; [4]): 153 µM
PA (control 214 mmHg) (hypertensive rats; [6]): 157 mmHg

CCCCCCCC/C=C\CCCCCCC(OP(=O)(OCC)OCC)C(=O)O (stereo not drawn) [DEPOD, α-diethyl-phosphatidyl-cis-Δ9-octadecenoic]
Body weight (g) (control = 311 g) ([1]; rat, in vivo): 301 g
IC50 (SF767 human tumour cells): 99 µM
% control CHO (cholesterol) ([2]; rat, in vivo, po, 600 mg/kg): 58 % control
% control TG (triglycerides) ([2]; rat, in vivo, po, 600 mg/kg): 43 % control
IC50 (A549 cells): 57 µM
PA (control 214 mmHg) (hypertensive rats; rat, in vivo, po, 400 mg/kg): 147 mmHg

CCCCCCCC/C=C\CCCCCCC(OC(C)=O)C(=O)OCC (stereo not drawn) [EE- ACOD]
Body weight (g) (control = 311 g) [1, 3]: 294 g
IC50 (SF767 human tumour cells; [4]): 176 µM
% control CHO (cholesterol) [2, 5]: 72 % control
% control TG (triglycerides) [2, 5]: 56 % control
IC50 (A549 cells; [4]): 185 µM
PA (control 214 mmHg) (hypertensive rats; [6]): 158 mmHg

CCCCCCCC/C=C\CCCCCCC(OP(=O)(OCC)OCC)C(=O)OCC (stereo not drawn) [EE-DEPOD]
Body weight (g) (control = 311 g) [1, 3]: 295 g
IC50 (SF767 human tumour cells; [4]): 82 µM
% control CHO (cholesterol) [2, 5]: 69 % control
% control TG (triglycerides) [2, 5]: 49 % control
IC50 (A549 cells; [4]): 77 µM
PA (control 214 mmHg) (hypertensive rats; [6]): 168 mmHg

CCCCCCCC/C=C\CCCCCCC(OC)C(=O)OCC (stereo not drawn) [EE-MOOD]
Body weight (g) (control = 311 g) [1, 3]: 297 g
IC50 (SF767 human tumour cells; [4]): 195 µM
% control CHO (cholesterol) [2, 5]: 64 % control
% control TG (triglycerides) [2, 5]: 66 % control
IC50 (A549 cells; [4]): 168 µM
PA (control 214 mmHg) (hypertensive rats; [6]): 154 mmHg

CCCCCCCCC=CCCCCCCC(O)C(=O)OCC (stereo not drawn) [EE-OHOD]
Body weight (g) (control = 311 g) [1, 3]: 295 g
IC50 (SF767 human tumour cells; [4]): 68 µM
% control CHO (cholesterol) [2, 5]: 62 % control
% control TG (triglycerides) [2, 5]: 47 % control
IC50 (A549 cells; [4]): 79 µM
PA (control 214 mmHg) (hypertensive rats; [6]): 161 mmHg

CCCCCCCC/C=C\CCCCCCC(OC(C)=O)C(=O)[O-].[Na+] (stereo not drawn) [Na-ACOD]
Body weight (g) (control = 311 g) [1, 3]: 298 g
IC50 (SF767 human tumour cells; [4]): 132 µM
% control CHO (cholesterol) [2, 5]: 49 % control
% control TG (triglycerides) [2, 5]: 35 % control
IC50 (A549 cells; [4]): 124 µM
PA (control 214 mmHg) (hypertensive rats; [6]): 166 mmHg

CCCCCCCC/C=C\CCCCCCC(OP(=O)(OCC)OCC)C(=O)[O-].[Na+] (stereo not drawn) [Na-DEPOD]
Body weight (g) (control = 311 g) [1, 3]: 298 g
IC50 (SF767 human tumour cells; [4]): 104 µM
% control CHO (cholesterol) [2, 5]: 45 % control
% control TG (triglycerides) [2, 5]: 37 % control
IC50 (A549 cells; [4]): 32 µM
PA (control 214 mmHg) (hypertensive rats; [6]): 159 mmHg

CCCCCCCC/C=C\CCCCCCC(OC)C(=O)[O-].[Na+] (stereo not drawn) [Na-MOOD]
Body weight (g) (control = 311 g) [1, 3]: 272 g
IC50 (SF767 human tumour cells; [4]): 91 µM
% control CHO (cholesterol) [2, 5]: 63 % control
% control TG (triglycerides) [2, 5]: 68 % control
IC50 (A549 cells; [4]): 77 µM
PA (control 214 mmHg) (hypertensive rats; [6]): 131 mmHg

CCCCCCCC/C=C\CCCCCCC(OC(C)=O)C(=O)OC (stereo not drawn) [OMe- ACOD]
Body weight (g) (control = 311 g) [1, 3]: 296 g
IC50 (SF767 human tumour cells; [4]): 214 µM
% control CHO (cholesterol) [2, 5]: 86 % control
% control TG (triglycerides) [2, 5]: 74 % control
IC50 (A549 cells; [4]): 246 µM
PA (control 214 mmHg) (hypertensive rats; [6]): 152 mmHg

CCCCCCCC/C=C\CCCCCCC(OP(=O)(OCC)OCC)C(=O)OC (stereo not drawn) [OMe-DEPOD]
Body weight (g) (control = 311 g) [1, 3]: 293 g
IC50 (SF767 human tumour cells; [4]): 43 µM
% control CHO (cholesterol) [2, 5]: 63 % control
% control TG (triglycerides) [2, 5]: 45 % control
IC50 (A549 cells; [4]): 66 µM
PA (control 214 mmHg) (hypertensive rats; [6]): 175 mmHg

CCCCCCCC/C=C\CCCCCCC(OC)C(=O)OC (stereo not drawn) [OMe-MOOD]
Body weight (g) (control = 311 g) [1, 3]: 296 g
IC50 (SF767 human tumour cells; [4]): 128 µM
% control CHO (cholesterol) [2, 5]: 77 % control
% control TG (triglycerides) [2, 5]: 69 % control
IC50 (A549 cells; [4]): 149 µM
PA (control 214 mmHg) (hypertensive rats; [6]): 143 mmHg

CCCCCCCC/C=C\CCCCCCC(O)C(=O)OC (stereo not drawn) [OMe-OHOD]
Body weight (g) (control = 311 g) [1, 3]: 299 g
IC50 (SF767 human tumour cells; [4]): 107 µM
% control CHO (cholesterol) [2, 5]: 71 % control
% control TG (triglycerides) [2, 5]: 64 % control
IC50 (A549 cells; [4]): 94 µM
PA (control 214 mmHg) (hypertensive rats; [6]): 155 mmHg
